Reference: US9718828B2 (MERCK SHARP & DOHME CORP., priority 2011, dated 2017)
Structures can show the parent of a compound that is named as a salt.

Experiments:
[1] = biological target: T1, hBTK (full-length BTK, 6HIS-tag cleaved) (Homo sapiens (Human), UniProt Q06187); test: BTK enzymatic activity, IMAP-FP assay (Assay Method B); format: biochemical
Description: BTK enzymatic activity was determined in an IMAP-FP assay (Immobilized Metal ion Affinity-based fluorescence Polarization; Molecular Devices). […] Phosphorylation reactions were allowed to proceed for 120 minutes and were immediately quenched by the addition of 40 μL IMAP detection beads resuspended in IMAP progressive binding buffer (beads were diluted 1:600 in 75% and 25% progressive binding buffer A and B, respectively; Molecular Devices). Plates were read on Packard microplate reader after 60 minutes binding equilibration using Fluorescence Polarization protocol.

[2] = biological target: T1, hBTK (full-length BTK, 6HIS-tag cleaved); test: BTK enzymatic activity, LANCE TR-FRET assay (Assay Method C); format: biochemical; conditions: LANCE TR-FRET, 50 pM hBTK, 25 μM ATP; class 100-1000 is given as ≧100 nM-<1 μM; read-out: IC50 Btk activity values - Assay Method C
[3] = IMAP-FP, 1.05 nM hBTK, 5 μM ATP, class 100-1000 is given as ≧100 nM-<1 μM, read-out: IC50 Btk activity values - Assay Method B

T1 sequence (Q06187 whole entry): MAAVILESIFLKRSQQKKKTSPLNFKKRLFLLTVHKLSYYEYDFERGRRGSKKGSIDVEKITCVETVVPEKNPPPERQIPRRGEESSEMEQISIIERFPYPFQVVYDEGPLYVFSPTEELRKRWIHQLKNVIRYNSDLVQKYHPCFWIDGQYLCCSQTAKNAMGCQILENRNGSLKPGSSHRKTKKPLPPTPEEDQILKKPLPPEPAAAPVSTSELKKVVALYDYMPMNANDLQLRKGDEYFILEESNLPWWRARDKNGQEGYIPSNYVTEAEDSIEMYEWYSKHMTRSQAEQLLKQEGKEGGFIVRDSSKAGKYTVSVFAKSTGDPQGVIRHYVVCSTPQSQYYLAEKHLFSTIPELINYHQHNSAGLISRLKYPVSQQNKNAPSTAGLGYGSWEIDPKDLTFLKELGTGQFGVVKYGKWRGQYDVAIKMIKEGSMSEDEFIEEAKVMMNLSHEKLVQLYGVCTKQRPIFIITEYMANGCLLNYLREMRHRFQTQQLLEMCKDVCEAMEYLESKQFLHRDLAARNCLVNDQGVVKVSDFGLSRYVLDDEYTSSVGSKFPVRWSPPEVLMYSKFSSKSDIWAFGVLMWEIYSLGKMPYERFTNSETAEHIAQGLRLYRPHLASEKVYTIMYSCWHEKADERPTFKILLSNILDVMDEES

Compound | IC50 [1, 3] [nM] | other results
CCc1ccnc(NC(=O)c2ccc(-c3cn([C@@H]4CCCN(C(=O)C5(C)COC5)C4)c4ncnc(N)c34)cc2)c1 [Example 391, 4-(4-amino-7-{(3R)-1-[(3-methyloxetan-3-yl)carbonyl]piperidin-3-yl}-7H-pyrrolo[2,3-d]pyrimidin-5-yl)-N-(4-ethylpyridin-2-yl)benzamide] | – | IC50 [1]: 10 to 100 nM
Nc1nccn2c([C@H]3CN(C(=O)C4(N)CCC4)CCO3)nc(-c3ccc(C(=O)Nc4cc(C(F)(F)F)ccn4)cc3)c12 [Example 499, 4-(8-amino-3-{(2R)-4-[(1-aminocyclobutyl)carbonyl]morpholin-2-yl}imidazo[1,5-a]pyrazin-1-yl)-N-[4-(trifluoromethyl)pyridin-2-yl]benzamide] | 10 to 100 | –
Cc1cc(C(=O)Nc2cc(C(F)(F)F)ccn2)ccc1-c1nc([C@@H]2CCCN(C(=O)C3(C)COC3)C2)n2ccnc(N)c12 [Example 479, 4-(8-amino-3-{(3R)-1-[(3-methyloxetan-3-yl)carbonyl]piperidin-3-yl}imidazo[1,5-a]pyrazin-1-yl)-3-methyl-N-[4-(trifluoromethyl)pyridin-2-yl]benzamide] | 10 to 100 | –
C[C@H]1[C@H](c2nc(-c3ccc(C(=O)Nc4cc(C(F)(F)F)ccn4)cc3)c3c(N)nccn23)CCCN1C(=O)C1(C)COC1 [Example 380, 4-(8-amino-3-{(2S,3R)-2-methyl-1-[(3-methyloxetan-3-yl)carbonyl]piperidin-3-yl}imidazo[1,5-a]pyrazin-1-yl)-N-[4-(trifluoromethyl)pyridin-2-yl]benzamide] | 10 to 100 | –
CCN1CCO[C@@H](c2nc(-c3ccc(C(=O)Nc4cc(C(F)(F)F)ccn4)cc3)c3c(N)nccn23)C1 [Example 496, 4-{8-amino-3-[(2R)-4-ethylmorpholin-2-yl]imidazo[1,5-a]pyrazin-1-yl}-N-[4-(trifluoromethyl)pyridin-2-yl]benzamide] | 10 to 100 | –
C[C@H]1CC[C@H](c2nc(-c3ccc(C(=O)Nc4cc(C(F)(F)F)ccn4)cc3)c3c(N)nccn23)CN1C(=O)C1(C)COC1 [Example 407, 4-(8-amino-3-{(3S,6S)-6-methyl-1-[(3-methyloxetan-3-yl)carbonyl]piperidin-3-yl}imidazo[1,5-a]pyrazin-1-yl)-N-[4-(trifluoromethyl)pyridin-2-yl]benzamide] | 10 to 100 | –
Cn1cc(CN2CCO[C@@H](c3nc(-c4ccc(C(=O)Nc5cc(C6CC6)ccn5)cc4)c4c(N)nccn34)C2)cn1 [Example 498, 4-(8-amino-3-{(2R)-4-[(1-methyl-1H-pyrazol-4-yl)methyl]morpholin-2-yl}imidazo[1,5-a]pyrazin-1-yl)-N-(4-cyclopropylpyridin-2-yl)benzamide] | 10 to 100 | –
C[C@@H]1CC[C@@H](c2nc(-c3ccc(C(=O)Nc4cc(C(F)(F)F)ccn4)cc3)c3c(N)nccn23)CN1C(=O)C1(C)COC1 [Example 405, 4-(8-amino-3-{(3R,6R)-6-methyl-1-[(3-methyloxetan-3-yl)carbonyl]piperidin-3-yl}imidazo[1,5-a]pyrazin-1-yl)-N-[4-(trifluoromethyl)pyridin-2-yl]benzamide] | 100 to 1000 | –
CCOc1ccnc(NC(=O)c2ccc(-c3nc([C@@H]4CC[C@H](C)N(C(=O)C5(C)COC5)C4)n4ccnc(N)c34)cc2)c1 [Example 404, 4-(8-amino-3-{(3R,6S)-6-methyl-1-[(3-methyloxetan-3-yl)carbonyl]piperidin-3-yl}imidazo[1,5-a]pyrazin-1-yl)-N-(4-ethoxypyridin-2-yl)benzamide] | < 10 | –
Cc1ccnc(NC(=O)c2ccc(-c3nc([C@@H]4CC[C@H](C)N(C(=O)C5(C)COC5)C4)n4ccnc(N)c34)cc2)c1 [Example 402, 4-(8-amino-3-{(3R,6S)-6-methyl-1-[(3-methyloxetan-3-yl)carbonyl]piperidin-3-yl}imidazo[1,5-a]pyrazin-1-yl)-N-(4-methylpyridin-2-yl)benzamide] | < 10 | –
C[C@H]1CC[C@@H](c2nc(-c3ccc(C(=O)Nc4ccccn4)cc3)c3c(N)nccn23)CN1C(=O)C1CC1 (stereo in doubt) [Example 394, 4-{8-amino-3-[(3R,6S)-1-(cyclopropylcarbonyl)-6-methylpiperidin-3-yl]imidazo[1,5-a]pyrazin-1-yl}-N-pyridin-2-ylbenzamide] | < 10 | –
CN1CCN(C)[C@@H](c2nc(-c3ccc(C(=O)Nc4cc(C(F)(F)F)ccn4)cc3)c3c(N)nccn23)C1 [Example 565, 4-{8-amino-3-[(2R)-1,4-dimethylpiperazin-2-yl]imidazo[1,5-a]pyrazin-1-yl}-N-[4-(trifluoromethyl)pyridin-2-yl]benzamide] | 100 to 1000 | –
COCC1(C(=O)N2CCO[C@@H](c3nc(-c4ccc(C(=O)Nc5cc(C(F)(F)F)ccn5)cc4)c4c(N)nccn34)C2)CCC1 [Example 500, 4-{8-amino-3-[(2R)-4-{[1-(methoxymethyl)cyclobutyl]carbonyl}morpholin-2-yl]imidazo[1,5-a]pyrazin-1-yl}-N-[4-(trifluoromethyl)pyridin-2-yl]benzamide] | 10 to 100 | –
C[C@@H]1CCN(C(=O)C2(C)COC2)C[C@@H]1c1nc(-c2ccc(C(=O)Nc3cc(C(F)(F)F)ccn3)cc2)c2c(N)nccn12 [Example 377, 4-(8-amino-3-{(3R,4R)-4-methyl-1-[(3-methyloxetan-3-yl)carbonyl]piperidin-3-yl}imidazo[1,5-a]pyrazin-1-yl)-N-[4-(trifluoromethyl)pyridin-2-yl]benzamide] | 100 to 1000 | –
CC1(C(=O)N2CCC[C@@H](n3cc(-c4ccc(C(=O)Nc5cc(C(F)(F)F)ccn5)cc4)c4c(N)ncnc43)C2)COC1 [Example 389, 4-(4-amino-7-{(3R)-1-[(3-methyloxetan-3-yl)carbonyl]piperidin-3-yl}-7H-pyrrolo[2,3-d]pyrimidin-5-yl)-N-[4-(trifluoromethyl)pyridin-2-yl]benzamide] | < 10 | –
Cc1cc(-c2nc([C@@H]3CCCN(C(=O)C4(C)COC4)C3)n3ccnc(N)c23)ccc1C(=O)Nc1cc(C(F)(F)F)ccn1 [Example 474, 4-(8-amino-3-{(3R)-1-[(3-methyloxetan-3-yl)carbonyl]piperidin-3-yl}imidazo[1,5-a]pyrazin-1-yl)-2-methyl-N-[4-(trifluoromethyl)pyridin-2-yl]benzamide] | 10 to 100 | –
COCCC(=O)N1CCC[C@@H](c2nc(-c3ccc(C(=O)Nc4ccccn4)cc3O)c3c(N)nccn23)C1 [Example 475, 4-{8-amino-3-[(3R)-1-(3-methoxypropanoyl)piperidin-3-yl]imidazo[1,5-a]pyrazin-1-yl}-3-hydroxy-N-pyridin-2-ylbenzamide] | 10 to 100 | –
CN1CCO[C@@H](c2nc(-c3ccc(C(=O)Nc4cc(C(F)(F)F)ccn4)cc3)c3c(N)nccn23)C1 [Example 497, 4-{8-amino-3-[(2R)-4-methylmorpholin-2-yl]imidazo[1,5-a]pyrazin-1-yl}-N-[4-(trifluoromethyl)pyridin-2-yl]benzamide] | 10 to 100 | –
COc1ccnc(NC(=O)c2ccc(-c3nc([C@@H]4CC[C@H](C)N(C(=O)C5(C)COC5)C4)n4ccnc(N)c34)cc2)c1 [Example 403, 4-(8-amino-3-{(3R,6S)-6-methyl-1-[(3-methyloxetan-3-yl)carbonyl]piperidin-3-yl}imidazo[1,5-a]pyrazin-1-yl)-N-(4-methoxypyridin-2-yl)benzamide] | < 10 | –
CC1(C(=O)N2CCN[C@@H](c3nc(-c4ccc(C(=O)Nc5cc(C(F)(F)F)ccn5)cc4)c4c(N)nccn34)C2)CC1 [Example 567, 4-(8-amino-3-{(2R)-4-[(1-methylcyclopropyl)carbonyl]piperazin-2-yl}imidazo[1,5-a]pyrazin-1-yl)-N-[4-(trifluoromethyl)pyridin-2-yl]benzamide] | – | IC50 ([1]; IMAP-FP, 1.05 nM hBTK, 5 μM ATP, read-out: IC50 Btk activity values - Assay Method B): ≥ 1000 nM
CN1CCS(=O)(=O)C(c2nc(-c3ccc(C(=O)Nc4cc(C(F)(F)F)ccn4)cc3)c3c(N)nccn23)C1 (stereo not shown) [Example 570, 4-[8-amino-3-(4-methyl-1,1-dioxidothiomorpholin-2-yl)imidazo[1,5-a]pyrazin-1-yl]-N-[4-(trifluoromethyl)pyridin-2-yl]benzamide] | 100 to 1000 | –
C[C@@H]1[C@H](c2nc(-c3ccc(C(=O)Nc4cc(C(F)(F)F)ccn4)cc3)c3c(N)nccn23)CCCN1C(=O)C1(C)COC1 [Example 379, 4-(8-amino-3-{(2R,3R)-2-methyl-1-[(3-methyloxetan-3-yl)carbonyl]piperidin-3-yl}imidazo[1,5-a]pyrazin-1-yl)-N-[4-(trifluoromethyl)pyridin-2-yl]benzamide] | < 10 | –
COc1cc(C(=O)Nc2cc(C(F)(F)F)ccn2)ccc1-c1nc([C@@H]2CC[C@H](C)N(C(=O)C3(C)COC3)C2)n2ccnc(N)c12 [Example 401, 4-(8-amino-3-{(3R,6S)-6-methyl-1-[(3-methyloxetan-3-yl)carbonyl]piperidin-3-yl}imidazo[1,5-a]pyrazin-1-yl)-3-methoxy-N-[4-(trifluoromethyl)pyridin-2-yl]benzamide] | < 10 | –
CCN1CCO[C@@H](c2nc(-c3ccc(C(=O)Nc4cc(C(F)(F)F)ccn4)cc3)c3c(N)ncc(C)n23)C1 [Example 511, 4-{8-amino-3-[(2R)-4-ethylmorpholin-2-yl]-5-methylimidazo[1,5-a]pyrazin-1-yl}-N-[4-(trifluoromethyl)pyridin-2-yl]benzamide] | – | IC50 [2]: < 10 nM
Cn1cc(CN2C[C@H](c3nc(-c4ccc(C(=O)Nc5cc(C(F)(F)F)ccn5)cc4)c4c(N)nccn34)OC[C@@H]2CO)cn1 [Example 548, 4-(8-amino-3-{(2R,5S)-5-(hydroxymethyl)-4-[(1-methyl-1H-pyrazol-4-yl)methyl]morpholin-2-yl}imidazo[1,5-a]pyrazin-1-yl)-N-[4-(trifluoromethyl)pyridin-2-yl]benzamide, TFA salt] | – | IC50 [2]: < 10 nM
